Source: the NIST ThermoML archive (doi:10.1016/j.fluid.2018.12.005)
“And” between values parts separate entries of the source, which are not always exact repeats. Equal values may be shown once. Numbers after ± are expanded uncertainties.

Key:
[1] = refractive index (Na D-line) (dimensionless); conditions: 298.15 K; 101.33 kPa; Liquid; Standard Abbe refractometry
[2] = Liquid; for vapor or sublimation pressure: Closed cell (Static) method; for mass density: 298.15 K, 101.33 kPa, Vibrating tube method

SMILES | refractive index [1] | vapor or sublimation pressure ([2]; 283.14 K) [kPa] | vapor or sublimation pressure ([2]; 283.16 K) [kPa] | vapor or sublimation pressure ([2]; 293.14 K) [kPa] | vapor or sublimation pressure ([2]; 293.15 K) [kPa] | mass density [2] | vapor or sublimation pressure ([2]; 303.12 K) [kPa] | vapor or sublimation pressure ([2]; 303.15 K) [kPa] | vapor or sublimation pressure ([2]; 313.13 K) [kPa] | vapor or sublimation pressure ([2]; 313.2 K) [kPa] | vapor or sublimation pressure ([2]; 323.13 K) [kPa] | vapor or sublimation pressure ([2]; 323.17 K) [kPa] | vapor or sublimation pressure ([2]; 283.15 K) [kPa] | vapor or sublimation pressure ([2]; 313.15 K) [kPa] | vapor or sublimation pressure ([2]; 323.16 K) [kPa]
FC(F)(F)C(F)(F)C(F)(F)C(F)(F)C(F)(F)C(F)(F)F [perfluorohexane] | 1.251 ± 0.002 and 1.253 ± 0.002 | 14.6 ± 0.2 | 14.4 ± 0.2 | 23.5 ± 0.3 | 23.4 ± 0.3 | 1701 ± 7 kg/m3 and 1670 ± 2 kg/m3 | 36.2 ± 0.3 | 36.3 ± 0.3 | 54.1 ± 0.4 | 54.4 ± 0.4 | 78.8 ± 0.5 | 78.9 ± 0.4 |  |  | 
CCCCCC [hexane] | 1.375 ± 0.002 |  |  |  |  | 655 ± 2 kg/m3 |  |  |  |  |  |  |  |  | 
FC(F)(F)C(F)(F)C(F)(F)C(F)(F)C(F)(F)C(F)(F)C(F)(F)C(F)(F)F [octadecafluorooctane] | 1.268 ± 0.002 |  |  |  | 2.72 ± 0.2 | 1755 ± 2 kg/m3 |  | 4.72 ± 0.2 |  |  |  |  | 1.51 ± 0.2 | 7.86 ± 0.21 | 12.6 ± 0.21
